Data as given in ChEMBL document CHEMBL1649156, “Antianaerobic activity of sulopenem compared to six other agents” (2009).

Assays:
Format in all cases: functional
Clostridium perfringens = test: Antimicrobial activity in Clostridium perfringens by CLSI agar dilution method in presence of Sulbactam
Hoylesella loescheii = test: Antimicrobial activity in Prevotella loescheii by CLSI agar dilution method in presence of Sulbactam
Fusobacterium nucleatum = test: Antimicrobial activity in Fusobacterium nucleatum by CLSI agar dilution method in presence of Sulbactam
[1] = system: Bacteroides thetaiotaomicron; test: Antimicrobial activity in Bacteroides thetaiotaomicron by CLSI agar dilution method in presence of Sulbactam
Actinomyces = test: Antimicrobial activity in Actinomyces by CLSI agar dilution method in presence of Sulbactam
[2] = system: Peptostreptococcus anaerobius; test: Antimicrobial activity in Peptostreptococcus anaerobius by CLSI agar dilution method in presence of Sulbactam
Clostridium cadaveris = test: Antimicrobial activity in Clostridium cadaveris by CLSI agar dilution method in presence of Sulbactam
Prevotella nigrescens = test: Antimicrobial activity in Prevotella nigrescens by CLSI agar dilution method in presence of Sulbactam
Porphyromonas gingivalis = test: Antimicrobial activity in Porphyromonas gingivalis by CLSI agar dilution method in presence of Sulbactam
Prevotella disiens = test: Antimicrobial activity in Prevotella disiens by CLSI agar dilution method in presence of Sulbactam
Anaerococcus tetradius = test: Antimicrobial activity in Anaerococcus tetradius by CLSI agar dilution method in presence of Sulbactam
[3] = system: Paeniclostridium sordellii; test: Antimicrobial activity in Clostridium sordellii by CLSI agar dilution method in presence of Sulbactam; conditions: Paraclostridium sordellii
Parvimonas micra = test: Antimicrobial activity in Micromonas micros by CLSI agar dilution method in presence of Sulbactam
Prevotella buccae = test: Antimicrobial activity in Prevotella buccae by CLSI agar dilution method in presence of Sulbactam; conditions: Segatella buccae
Hoylesella oralis = test: Antimicrobial activity in Prevotella oralis group by CLSI agar dilution method in presence of Sulbactam
[4] = system: Peptoniphilus asaccharolyticus; test: Antimicrobial activity in Peptoniphilus asaccharolyticus by CLSI agar dilution method in presence of Sulbactam
Bacteroides stercoris = test: Antimicrobial activity in Bacteroides stercoris by CLSI agar dilution method in presence of Sulbactam
Cutibacterium acnes = test: Antimicrobial activity in Propionibacterium acnes by CLSI agar dilution method in presence of Sulbactam
[5] = system: Parabacteroides distasonis; test: Antimicrobial activity in Bacteroides distasonis by CLSI agar dilution method in presence of Sulbactam
Bacteroides ovatus = test: Antimicrobial activity in Bacteroides ovatus by CLSI agar dilution method in presence of Sulbactam
Clostridium tertium = test: Antimicrobial activity in Clostridium tertium by CLSI agar dilution method in presence of Sulbactam
Tissierella praeacuta = test: Antimicrobial activity in Clostridium hastiforme by CLSI agar dilution method in presence of Sulbactam
Clostridium butyricum = test: Antimicrobial activity in Clostridium butyricum by CLSI agar dilution method in presence of Sulbactam
[6] = system: Prevotella melaninogenica; test: Antimicrobial activity in Prevotella melaninogenica by CLSI agar dilution method in presence of Sulbactam
Fusobacterium varium = test: Antimicrobial activity in Fusobacterium varium by CLSI agar dilution method in presence of Sulbactam
Prevotella bivia = test: Antimicrobial activity in Prevotella bivia by CLSI agar dilution method in presence of Sulbactam
Clostridioides difficile = test: Antimicrobial activity in Clostridium difficile by CLSI agar dilution method in presence of Sulbactam
[Clostridium] innocuum = Antimicrobial activity in Clostridium innocuum by CLSI agar dilution method in presence of Sulbactam
Bacteroides fragilis = test: Antimicrobial activity in Bacteroides fragilis by CLSI agar dilution method in presence of Sulbactam
Phocaeicola vulgatus = test: Antimicrobial activity in Bacteroides vulgatus by CLSI agar dilution method in presence of Sulbactam
Prevotella salivae = test: Antimicrobial activity in Prevotella salivae by CLSI agar dilution method in presence of Sulbactam; conditions: Segatella salivae
[7] = system: Paraclostridium bifermentans; test: Antimicrobial activity in Clostridium bifermentans by CLSI agar dilution method in presence of Sulbactam
Prevotella intermedia = test: Antimicrobial activity in Prevotella intermedia by CLSI agar dilution method in presence of Sulbactam
Lactobacillus = test: Antimicrobial activity in Lactobacillus by CLSI agar dilution method in presence of Sulbactam
Prevotella veroralis = test: Antimicrobial activity in Prevotella veroralis by CLSI agar dilution method in presence of Sulbactam
[8] = system: Fusobacterium necrophorum; test: Antimicrobial activity in Fusobacterium necrophorum by CLSI agar dilution method in presence of Sulbactam
Fusobacterium mortiferum = test: Antimicrobial activity in Fusobacterium mortiferum by CLSI agar dilution method in presence of Sulbactam
Prevotella denticola = test: Antimicrobial activity in Prevotella denticola by CLSI agar dilution method in presence of Sulbactam
Anaerococcus prevotii = test: Antimicrobial activity in Anaerococcus prevotii by CLSI agar dilution method in presence of Sulbactam
Bifidobacterium = test: Antimicrobial activity in Bifidobacterium by CLSI agar dilution method in presence of Sulbactam
Finegoldia magna = test: Antimicrobial activity in Finegoldia magna by CLSI agar dilution method in presence of Sulbactam
Prevotella bergensis = test: Antimicrobial activity in Prevotella bergensis by CLSI agar dilution method in presence of Sulbactam; conditions: Hallella bergensis
Eggerthella lenta = test: Antimicrobial activity in Eggerthella lenta by CLSI agar dilution method in presence of Sulbactam
Clostridium sp. = test: Antimicrobial activity in Clostridium sp. by CLSI agar dilution method in presence of Sulbactam
Prevotella baroniae = test: Antimicrobial activity in Prevotella baroniae by CLSI agar dilution method in presence of Sulbactam; conditions: Segatella baroniae
[9] = system: Porphyromonas asaccharolytica; test: Antimicrobial activity in Porphyromonas asaccharolytica by CLSI agar dilution method in presence of Sulbactam
[10] = system: Enterocloster clostridioformis; test: Antimicrobial activity in Clostridium clostridioforme by CLSI agar dilution method in presence of Sulbactam
Bacteroides uniformis = test: Antimicrobial activity in Bacteroides uniformis by CLSI agar dilution method in presence of Sulbactam
Prevotella corporis = test: Antimicrobial activity in Prevotella corporis by CLSI agar dilution method in presence of Sulbactam
Prevotella sp. = test: Antimicrobial activity in Prevotella sp.by CLSI agar dilution method in presence of Sulbactam
Thomasclavelia ramosa = test: Antimicrobial activity in Clostridium ramosum by CLSI agar dilution method in presence of Sulbactam

With `CC1(C)S[C@@H]2[C@H](NC(=O)[C@H](N)c3ccccc3)C(=O)N2[C@H]1C(=O)O` [AMPICILLIN] the MIC (Clostridium perfringens) was ≤ 0.125 mg/L, the MIC50 (Clostridium perfringens) was ≤ 0.125 mg/L and the MIC90 (Clostridium perfringens) was 0.25 mg/L. The MIC (Hoylesella loescheii) was 0.5 mg/L, the MIC (Fusobacterium nucleatum) was ≤ 0.125 mg/L and the MIC50 (Fusobacterium nucleatum) was ≤ 0.125 mg/L. For the same molecule, the MIC90 (Fusobacterium nucleatum) was ≤ 0.125 mg/L, the MIC50 [1] was 2 mg/L and the MIC90 [1] was 8 mg/L. For the same molecule, the MIC (Actinomyces) was ≤ 0.125 mg/L, the MIC50 (Actinomyces) was 0.25 mg/L and the MIC50 [2] was 0.25 mg/L. The MIC90 [2] was 16 mg/L, the MIC (Clostridium cadaveris) was ≤ 0.125 mg/L and the MIC50 (Prevotella nigrescens) was 0.25 mg/L. For the same molecule, the MIC90 (Prevotella nigrescens) was 0.5 mg/L, the MIC (Porphyromonas gingivalis) was ≤ 0.125 mg/L and the MIC (Prevotella disiens) was ≤ 0.125 mg/L. For the same molecule, the MIC50 (Prevotella disiens) was 0.25 mg/L, the MIC (Anaerococcus tetradius) was ≤ 0.125 mg/L and the MIC50 (Anaerococcus tetradius) was ≤ 0.125 mg/L. For the same molecule, the MIC90 (Anaerococcus tetradius) was ≤ 0.125 mg/L, the MIC [3] was ≤ 0.125 mg/L and the MIC (Parvimonas micra) was ≤ 0.125 mg/L. For the same molecule, the MIC50 (Parvimonas micra) was ≤ 0.125 mg/L, the MIC90 (Parvimonas micra) was 1 mg/L and the MIC50 (Prevotella buccae) was 0.25 mg/L. The MIC90 (Prevotella buccae) was 2 mg/L, the MIC (Hoylesella oralis) was ≤ 0.125 mg/L and the MIC [4] was ≤ 0.125 mg/L. The MIC50 [4] was ≤ 0.125 mg/L, the MIC (Bacteroides stercoris) was 1 mg/L and the MIC50 (Bacteroides stercoris) was 2 mg/L. The MIC (Cutibacterium acnes) was ≤ 0.125 mg/L, the MIC50 (Cutibacterium acnes) was ≤ 0.125 mg/L and the MIC90 (Cutibacterium acnes) was 0.25 mg/L. The MIC50 [5] was 8 mg/L, the MIC90 [5] was 32 mg/L and the MIC (Bacteroides ovatus) was 1 mg/L. The MIC50 (Bacteroides ovatus) was 1 mg/L, the MIC90 (Bacteroides ovatus) was 4 mg/L and the MIC (Clostridium tertium) was 0.25 mg/L. It also gave an MIC50 (Clostridium tertium) of 0.25 mg/L, an MIC (Tissierella praeacuta) of 1 mg/L and an MIC (Clostridium butyricum) of 1 mg/L. For the same molecule, the MIC50 [6] was 0.5 mg/L, the MIC90 [6] was 2 mg/L and the MIC50 (Fusobacterium varium) was 2 mg/L. The MIC90 (Fusobacterium varium) was 2 mg/L, the MIC50 (Prevotella bivia) was 1 mg/L and the MIC90 (Prevotella bivia) was 4 mg/L. The MIC50 (Clostridioides difficile) was 2 mg/L, the MIC90 (Clostridioides difficile) was 2 mg/L and the MIC ([Clostridium] innocuum) was ≤ 0.125 mg/L. It also gave an MIC50 (Bacteroides fragilis) of 1 mg/L, an MIC90 (Bacteroides fragilis) of 8 mg/L and an MIC50 (Phocaeicola vulgatus) of 2 mg/L. For the same molecule, the MIC90 (Phocaeicola vulgatus) was 16 mg/L, the MIC (Prevotella salivae) was ≤ 0.125 mg/L and the MIC [7] was 0.5 mg/L. It also gave an MIC50 (Prevotella intermedia) of 0.25 mg/L, an MIC90 (Prevotella intermedia) of 0.5 mg/L and an MIC50 (Lactobacillus) of 1 mg/L. For the same molecule, the MIC90 (Lactobacillus) was 1 mg/L, the MIC (Prevotella veroralis) was ≤ 0.125 mg/L and the MIC [8] was ≤ 0.125 mg/L. The MIC50 [8] was ≤ 0.125 mg/L, the MIC50 (Fusobacterium mortiferum) was 1 mg/L and the MIC90 (Fusobacterium mortiferum) was > 32 mg/L. The MIC50 (Prevotella denticola) was 0.5 mg/L, the MIC90 (Prevotella denticola) was 2 mg/L and the MIC (Anaerococcus prevotii) was ≤ 0.125 mg/L. The MIC (Bifidobacterium) was ≤ 0.125 mg/L, the MIC50 (Bifidobacterium) was ≤ 0.125 mg/L and the MIC90 (Bifidobacterium) was 0.25 mg/L. The MIC50 (Finegoldia magna) was 0.25 mg/L, the MIC90 (Finegoldia magna) was 0.5 mg/L and the MIC (Prevotella bergensis) was 1 mg/L. It also gave an MIC50 (Eggerthella lenta) of 1 mg/L, an MIC90 (Eggerthella lenta) of 2 mg/L and an MIC50 (Clostridium sp.) of 0.25 mg/L. For the same molecule, the MIC90 (Clostridium sp.) was 0.5 mg/L, the MIC (Prevotella baroniae) was ≤ 0.125 mg/L and the MIC [9] was ≤ 0.125 mg/L. For the same molecule, the MIC [10] was 1 mg/L, the MIC (Bacteroides uniformis) was 1 mg/L and the MIC50 (Bacteroides uniformis) was 1 mg/L. The MIC (Prevotella corporis) was ≤ 0.125 mg/L, the MIC50 (Prevotella corporis) was ≤ 0.125 mg/L and the MIC (Prevotella sp.) was ≤ 0.125 mg/L. For the same molecule, the MIC (Thomasclavelia ramosa) was ≤ 0.125 mg/L.
